Test results reported in patent publication US9296745B2, “Diacylglycerol acyltransferase 2 inhibitors” (Pfizer Inc., priority 2012, dated 2016).

Target: Human DGAT2 (hDGAT2) (Homo sapiens (Human), UniProt Q96PD7)
Test: In vitro DGAT2 assay, IC50 determination with hDGAT2 membrane fraction
Format: biochemical
Conditions: geometric mean; background for complete inhibition of DGAT2 obtained with 50 μM (1R,2R)-2-({3′-Fluoro-4′-[(6-fluoro-1,3-benzothiazol-2-yl)amino]-1,1′-biphenyl-4-yl}carbonyl)cyclopentanecarboxylic acid; read-out: DGAT2 IC50
Procedure, shortened: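 CHAPS-solubilized membrane fraction of FLAG-tagged hDGAT2 from baculovirus-infected SF9 cells (0.01 mg/mL) in 100 mM Hepes-NaOH pH 7.4, 20 mM MgCl2, 200 nM methyl arachidonyl fluorophosphonate; compounds pre-incubated 20 min with 0.04% BSA. Reaction 40 min at room temperature, stopped with H3PO4. [^14C]tridecanoylglycerol in organic phase counted; 11-point geometric mean IC50.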

Sequence of Human DGAT2 (hDGAT2) (Q96PD7 whole entry): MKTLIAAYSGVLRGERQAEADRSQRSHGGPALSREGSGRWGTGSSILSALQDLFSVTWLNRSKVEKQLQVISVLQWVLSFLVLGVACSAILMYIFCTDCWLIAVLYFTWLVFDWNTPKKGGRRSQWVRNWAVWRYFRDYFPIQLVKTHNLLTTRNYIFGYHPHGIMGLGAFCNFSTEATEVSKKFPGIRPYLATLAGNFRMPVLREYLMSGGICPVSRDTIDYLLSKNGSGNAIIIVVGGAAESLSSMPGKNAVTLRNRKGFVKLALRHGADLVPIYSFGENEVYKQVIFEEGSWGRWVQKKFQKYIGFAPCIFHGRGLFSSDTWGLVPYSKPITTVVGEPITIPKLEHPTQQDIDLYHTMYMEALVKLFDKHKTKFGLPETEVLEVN

IC50 | Compound
396 nM | O=C([C@@H]1CCCN(c2ccc3nc(C4(n5nccn5)CC4)[nH]c3n2)C1)N1CCCC1 [Example 214, (R)-(1-(2-(1-(2H-1,2,3-Triazol-2-yl)cyclopropyl)-3H-imidazo[4,5-b]pyridin-5-yl)piperidin-3-yl)(pyrrolidin-1-yl)methanone]
10.5 nM | O=C([C@@H]1CCCN(c2ncc3nc(-c4cccc(C(F)(F)F)n4)[nH]c3n2)C1)N1CCCC1 [Example 187, (R)-Pyrrolidin-1-yl(1-(8-(6-(trifluoromethyl)pyridin-2-yl)-9H-purin-2-yl)piperidin-3-yl)methanone]
483 nM | O=C([C@@H]1CCCN(c2ccc3nc(C4(n5ccnc5)CC4)[nH]c3n2)C1)N1CCCC1 [Example 215, (R)-(1-(2-(1-(1H-Imidazol-1-yl)cyclopropyl)-3H-imidazo[4,5-b]pyridin-5-yl)piperidin-3-yl)(pyrrolidin-1-yl)methanone]
9200 nM | C[C@H]1CC[C@@H](C(=O)N2CCCC2)CN1c1ccc2nc(C3(n4cc(Cl)cn4)CC3)[nH]c2n1 [Example 216, ((3R,6S)-1-(2-(1-(4-Chloro-1H-pyrazol-1-yl)cyclopropyl)-3H-imidazo[4,5-b]pyridin-5-yl)-6-methylpiperidin-3-yl)(pyrrolidin-1-yl)methanone]
28.2 nM | O=C([C@@H]1CCCN(c2ncc3nc(-c4ccnc(C5CC5)n4)[nH]c3n2)C1)N1CCCC1 [Example 159, (R)-(1-(8-(2-Cyclopropylpyrimidin-4-yl)-9H-purin-2-yl)piperidin-3-yl)(pyrrolidin-1-yl)methanone]
512 nM | CS(=O)(=O)c1cncc(-c2nc3ccc(N4CCC[C@@H](C(=O)N5CCCC5)C4)nc3[nH]2)c1 [Example 179, (R)-(1-(2-(5-(Methylsulfonyl)pyridin-3-yl)-3H-imidazo[4,5-b]pyridin-5-yl)piperidin-3-yl)(pyrrolidin-1-yl)methanone]
231 nM | CCN(C)C(=O)[C@@H]1CCCN(c2ccc3nc(-c4ccnc(C5CC5)n4)[nH]c3n2)C1 [Example 185, (R)-1-(2-(2-Cyclopropylpyrimidin-4-yl)-3H-imidazo[4,5-b]pyridin-5-yl)-N-ethyl-N-methylpiperidine-3-carboxamide]
211 nM | CC(c1ccccc1)c1nc2ccc(N3CCC[C@@H](C(=O)N4CCCC4)C3)nc2[nH]1 (stereo partly drawn) [Example 157, (R)-(1-(2-(1-Phenylethyl)-3H-imidazo[4,5-b]pyridin-5-yl)piperidin-3-yl)(pyrrolidin-1-yl)methanone]
3400 nM | O=C([C@@H]1CCCN(c2ccc3nc(-c4cccc(-c5nnn[nH]5)c4)[nH]c3n2)C1)N1CCCC1 [Example 163, (R)-(1-(2-(3-(2H-Tetrazol-5-yl)phenyl)-3H-imidazo[4,5-b]pyridin-5-yl)piperidin-3-yl)(pyrrolidin-1-yl)methanone]
656 nM | O=C([C@@H]1CCCN(c2ccc3nc(C4(c5ncccn5)CC4)[nH]c3n2)C1)N1CCCC1 [Example 204, (R)-(1-(2-(1-(Pyrimidin-2-yl)cyclopropyl)-3H-imidazo[4,5-b]pyridin-5-yl)piperidin-3-yl)(pyrrolidin-1-yl)methanone]
292 nM | c1cc(-c2nc3ccc(N4CCCC(c5nnc6n5CCC6)C4)nc3[nH]2)nc(C2CC2)c1 (racemic) [Example 169, 2-(6-Cyclopropylpyridin-2-yl)-5-(3-(6,7-dihydro-5H-pyrrolo[2,1-c][1,2,4]triazol-3-yl)piperidin-1-yl)-3H-imidazo[4,5-b]pyridine]

Continued, compound first:

Compound | IC50
CCc1csc(-c2nc3ccc(N4CCC[C@@H](C(=O)N5CCCC5)C4)nc3[nH]2)n1 [Example 40, (R)-(1-(2-(4-Ethylthiazol-2-yl)-3H-imidazo[4,5-b]pyridin-5-yl)piperidin-3-yl)(pyrrolidin-1-yl)methanone] | 6.47 nM
COC(=O)c1cccc(-c2nc3ccc(N4CCC[C@@H](C(=O)N5CCCC5)C4)nc3[nH]2)n1 [Example 123, (R)-Methyl 6-(5-(3-(pyrrolidine-1-carbonyl)piperidin-1-yl)-1H-imidazo[4,5-b]pyridin-2-yl)picolinate] | 276 nM
C[C@@H]1CCCN1C(=O)[C@@H]1CCCN(c2ccc3nc(-c4ccnc(C5CC5)n4)[nH]c3n2)C1 [Example 67, ((R)-1-(2-(2-Cyclopropylpyrimidin-4-yl)-3H-imidazo[4,5-b]pyridin-5-yl)piperidin-3-yl)((R)-2-methylpyrrolidin-1-yl)methanone] | 58.2 nM
CC(C)(C)c1csc(-c2nc3ccc(N4CCC[C@@H](C(=O)N5CCCC5)C4)nc3[nH]2)n1 [Example 42, (R)-(1-(2-(4-tert-Butylthiazol-2-yl)-3H-imidazo[4,5-b]pyridin-5-yl)piperidin-3-yl)(pyrrolidin-1-yl)methanone] | 3.18 nM
O=C([C@@H]1CCCN(c2ccc3nc(-c4cccc(C5(O)CC5)n4)[nH]c3n2)C1)N1CCCC1 [Example 139, (R)-(1-(2-(6-(1-Hydroxycyclopropyl)pyridin-2-yl)-3H-imidazo[4,5-b]pyridin-5-yl)piperidin-3-yl)(pyrrolidin-1-yl)methanone] | 62.3 nM
O=C([C@@H]1CCCN(c2ccc3nc(-c4nccc(C5CC5)n4)[nH]c3n2)C1)N1CCCC1 [Example 99, (R)-(1-(2-(4-Cyclopropylpyrimidin-2-yl)-3H-imidazo[4,5-b]pyridin-5-yl)piperidin-3-yl)(pyrrolidin-1-yl)methanone] | 72.5 nM
CC(C)(O)c1cc(-c2nc3ccc(N4CCC[C@@H](C(=O)N5CCCC5)C4)nc3[nH]2)ccn1 [Example 14, (R)-(1-(2-(2-(2-Hydroxypropan-2-yl)pyridin-4-yl)-3H-imidazo[4,5-b]pyridin-5-yl)piperidin-3-yl)(pyrrolidin-1-yl)methanone] | 72.8 nM
O=C([C@@H]1CCCN(c2cnc3nc(-c4ccnc(C5CC5)n4)[nH]c3n2)C1)N1CCCC1 [Example 138, (R)-(1-(2-(2-Cyclopropylpyrimidin-4-yl)-1H-imidazo[4,5-b]pyrazin-6-yl)piperidin-3-yl)(pyrrolidin-1-yl)methanone] | 71.6 nM
O=C([C@@H]1CCCN(c2ccc3nc(-c4cccc(C(F)(F)F)n4)[nH]c3n2)C1)N1CCCC1 [Example 112, (R)-Pyrrolidin-1-yl(1-(2-(6-(trifluoromethyl)pyridin-2-yl)-3H-imidazo[4,5-b]pyridin-5-yl)piperidin-3-yl)methanone] | 9.23 nM
Cn1nccc1C1(c2nc3ccc(N4CCC[C@@H](C(=O)N5CCCC5)C4)nc3[nH]2)CC1 [Example 104, (R)-(1-(2-(1-(1-Methyl-1H-pyrazol-5-yl)cyclopropyl)-3H-imidazo[4,5-b]pyridin-5-yl)piperidin-3-yl)(pyrrolidin-1-yl)methanone] | 190 nM
CC(C)(O)c1cccc(-c2nc3ccc(N4CCC[C@@H](C(=O)N5CCCC5)C4)nc3[nH]2)n1 [Example 115, (R)-(1-(2-(6-(2-Hydroxypropan-2-yl)pyridin-2-yl)-3H-imidazo[4,5-b]pyridin-5-yl)piperidin-3-yl)(pyrrolidin-1-yl)methanone] | 67.9 nM
O=C([C@@H]1CCCN(c2ccc3nc(-c4cccc(Cl)c4)[nH]c3n2)C1)N1CCCC1 [Example 41, (R)-(1-(2-(3-Chlorophenyl)-3H-imidazo[4,5-b]pyridin-5-yl)piperidin-3-yl)(pyrrolidin-1-yl)methanone] | 4.56 nM
CCN(CC)C(=O)c1nc2ccc(N3CCC[C@@H](C(=O)N4CCCC4)C3)nc2[nH]1 [Example 129, (R)—N,N-Diethyl-5-(3-(pyrrolidine-1-carbonyl)piperidin-1-yl)-3H-imidazo[4,5-b]pyridine-2-carboxamide] | 4540 nM
O=C([C@H]1CN(c2ccc3nc(-c4cccc(C(F)(F)F)n4)[nH]c3n2)CCO1)N1CCCC1 [Example 143, (R)-Pyrrolidin-1-yl(4-(2-(6-(trifluoromethyl)pyridin-2-yl)-3H-imidazo[4,5-b]pyridin-5-yl)morpholin-2-yl)methanone] | 511 nM
O=C([C@@H]1CCCN(c2ccc3nc(-c4cncc(C5CC5)n4)[nH]c3n2)C1)N1CCOCC1 [Example 107, (R)-(1-(2-(6-Cyclopropylpyrazin-2-yl)-3H-imidazo[4,5-b]pyridin-5-yl)piperidin-3-yl)(morpholino)methanone] | 153 nM
O=C([C@@H]1CCCN(c2ccc3nc(-c4ccnc(C5CC5)n4)[nH]c3n2)C1)N1CC[C@@H](F)C1 [Example 69, ((R)-1-(2-(2-Cyclopropylpyrimidin-4-yl)-3H-imidazo[4,5-b]pyridin-5-yl)piperidin-3-yl)((R)-3-fluoropyrrolidin-1-yl)methanone] | 35.4 nM
O=C([C@@H]1CCCN(c2ccc3nc(-c4cnn(-c5ccccc5)c4)[nH]c3n2)C1)N1CCCC1 [Example 9, (R)-(1-(2-(1-Phenyl-1H-pyrazol-4-yl)-3H-imidazo[4,5-b]pyridin-5-yl)piperidin-3-yl)(pyrrolidin-1-yl)methanone] | 22.1 nM
N#Cc1ccc(-c2nc3ccc(N4CCC[C@@H](C(=O)N5CCCC5)C4)nc3[nH]2)cc1 [Example 13, (R)-4-(5-(3-(Pyrrolidine-1-carbonyl)piperidin-1-yl)-3H-imidazo[4,5-b]pyridin-2-yl)benzonitrile] | 63.6 nM
O=C([C@@H]1CCCN(c2ccc3nc(-c4ccc(OC(F)(F)F)cc4)[nH]c3n2)C1)N1CCCC1 [Example 34, (R)-Pyrrolidin-1-yl(1-(2-(4-(trifluoromethoxy)phenyl)-3H-imidazo[4,5-b]pyridin-5-yl)piperidin-3-yl)methanone] | 24.8 nM

Same assay, conditions: read-out: DGAT2 IC50

IC50 | Compound
17400 nM | C[C@H]1CCN(c2ccc3nc(-c4cccc(OC(F)F)c4)[nH]c3n2)C[C@H]1C(=O)N(C)C [Example 181, (3S,4S)-1-(2-(3-(difluoromethoxy)phenyl)-3H-imidazo[4,5-b]pyridin-5-yl)-N,N,4-trimethylpiperidine-3-carboxamide]
